Test results reported in patent US4568691A, “Anti-inflammatory esters of 4-(1-hydroxy-2-[(acylamino)-alkylamino]-ethyl)-phenol derivatives, compositions, and method of use therefor” (Imperial Chemical Industries, PLC, priority 1981, dated 1986).

Columns and labels:
[1] = system: croton oil induced inflammation on the mouse ear; experiment: croton oil induced inflammation test on the mouse ear, single topical application; format: in vivo, albino mouse (Alderley Park Strain); settings: 4 hours after croton oil
Experimental: A 4% v/v solution of croton oil in (acetone) was prepared. A portion (10 μl.) of this solution was applied to the right ear of an albino mouse (Alderley Park Strain, specific pathogen free). This was followed by immediate application of a portion (10 μl.) of a solution of test compound in ethanol to the same ear of the mouse. This procedure was repeated for a total of ten mice.
After 4 hours the mice were sacrificed and both ears from each mouse were removed and weighed. The increase in weight of the right over the left ear for each mouse was then determined and an average obtained for the group as a whole. […] The percentage inhibition of croton oil induced inflammation was then calculated for the test compound.

[2] = system: croton oil induced inflammation on the mouse ear; experiment: effect of repeated topical application on anti-inflammatory properties in the croton oil induced inflammation test; format: in vivo, albino mouse (Alderley Park Strain); settings: for Percentage reduction in croton oil induced inflammation, Four Applns: four applications (3, 2, 1 day before and immediately after croton oil), rate approximately 4 × IC50
Description: (b) An indication of the effect of repeated topical application of a test compound on its anti-inflammatory properties was obtained as follows:
first application received 3 days before croton oil;
second application received 2 days before croton oil;
third application received 1 day before croton oil; and
fourth application received immediately after croton oil.

[3] = system: croton oil induced inflammation on the mouse ear; experiment: as above; format: in vivo, albino mouse (Alderley Park Strain); settings: single application immediately after croton oil; rate approximately 4 × IC50
[4] = system: croton oil induced inflammation on the mouse ear; settings: known from earlier patent publications (UK 1591618); cited from earlier work

Row | IC50 (amount of test compound per ear which inhibited the inflammation by 50%) [1] | SMILES | Percentage reduction in croton oil induced inflammation, Four Applns [2] | Percentage reduction in croton oil induced inflammation, Single Appln [3] | reduction in topical anti-inflammatory properties after repeated topical applications ([2]; two or more / several topical applications spaced over several days) | topical anti-inflammatory properties [4]
1 | 7 μg/ear | CC(C)(CNC(=O)c1cc(Cl)ccn1)NCC(O)c1ccc(OC(=O)C(C)(C)C)c(OC(=O)C(C)(C)C)c1 (centres unmarked) [4-chloro-2-pyridyl] | 33% | 68% | – | –
2 | 13 μg/ear | CC(C)(CNC(=O)c1ccco1)NCC(O)c1ccc(OC(=O)C(C)(C)C)c(OC(=O)C(C)(C)C)c1 (centres unmarked) [Example 7, 4-(1-hydroxy-2-[2-(2-furylcarboxyamido)-1,1-dimethyl-ethylamino]ethyl)catechol dipivaloyl ester] | 64% | 60% | – | –

Continued, molecule first:

Row | SMILES | IC50 (amount of test compound per ear which inhibited the inflammation by 50%) [1] | Percentage reduction in croton oil induced inflammation, Four Applns [2] | Percentage reduction in croton oil induced inflammation, Single Appln [3] | reduction in topical anti-inflammatory properties after repeated topical applications ([2]; two or more / several topical applications spaced over several days) | topical anti-inflammatory properties [4]
3 | CC(C)(CNC(=O)c1cccs1)NCC(O)c1ccc(OC(=O)C(C)(C)C)c(OC(=O)C(C)(C)C)c1 (centres unmarked) [Example 2-thienyl] | 7 μg/ear | 33% | 71% | – | –
4 | CC(C)(CNC(=O)c1ccoc1)NCC(O)c1ccc(OC(=O)C(C)(C)C)c(OC(=O)C(C)(C)C)c1 (centres unmarked) [Example 3-furyl] | 2 μg/ear | 45% | 65% | – | –
5 | CC(C)(CNC(=O)c1cc2ccccc2o1)NCC(O)c1ccc(OC(=O)C(C)(C)C)c(OC(=O)C(C)(C)C)c1 (centres unmarked) [Example 8, 4-(1-hydroxy-2-[1,1-dimethyl-2-(2-benzo[b]furyl-carboxamido)ethylamino]ethyl)catechol dipivaloyl ester] | 11 μg/ear | 59% | 61% | – | –
6 | CC(C)(CNC(=O)c1cc2ccccc2s1)NCC(O)c1ccc(OC(=O)C(C)(C)C)c(OC(=O)C(C)(C)C)c1 (centres unmarked) [Example 9, 4-(1-hydroxy-2-[1,1-dimethyl-2-(2-benzo[b]thienylcarboxamido)ethylamino]ethyl)catechol dipivaloyl ester] | 23 μg/ear | 65% | 64% | – | –
7 | CC(C)(CNCC(O)c1ccc(OC(=O)C(C)(C)C)c(OC(=O)C(C)(C)C)c1)NC(=O)COc1ccccc1 (centres unmarked) [phenoxymethyl, 4-(1-hydroxy-2-[2-methyl-2-(phenoxyacetamido)-propylamino]ethyl)catechol dipivaloyl ester] | 2.5 μg/ear | 23% | 60% | significant reduction in topical anti-inflammatory properties | potent topical anti-inflammatory properties
